Source: patent US20100227841A1, “Patient populations and treatment methods” (Harbor BioSciencs, Inc., priority 2008, published 2010)

System: patients having type 2 diabetes
Test: Phase II double-blinded placebo controlled 12-week trial in type 2 diabetes patients on metformin
Type: in vivo, human
Conditions: for Fasting C-peptide Change from baseline / Fasting Glucose Change from baseline / HbA1c Change from baseline / LDL Cholesterol change from baseline / Total Cholesterol change from baseline / Weight change from baseline / HOMA2% insulin sensitivity change from baseline / HOMA2% β cell function change from baseline / HOMA2 Insulin resistance change from baseline: 5 mg twice per day + metformin; for HOMA2% insulin sensitivity change from baseline / HOMA2% β cell function change from baseline / HOMA2 Insulin resistance change from baseline: calculated using C-peptide
Experimental: Patients having type 2 diabetes were evaluated for their baseline BMI and levels of MCP1, insulin and C peptide. The effect of treatment with 17α-ethynylandrost-5-ene-3β,7β,17β-triol (5 mg administered orally twice per day for 84 days) on total cholesterol, LDL cholesterol, hemoglobin A1c (HbA1c) plus metformin (500-2250 mg/day, which was administered in one or two doses per day for 84 days), weight, and other biological responses is shown in the tables below. The effect of treatment in all treated patients was compared with the effect of the same treatment in the responder population, characterized as having a BMI>27.99 (overweight or obese), insulin resistant (C-peptide >1.99 ng/mL or essentially normal insulin >3.99 μU/mL to about 29 μU/mL with hyperglycemia), and having an elevated serum MCP1>399.99 pg/mL, indicating a state of systemic inflammation. The responder patients were a subset of all patients were treated.
The Phase II, double-blinded placebo controlled 12-week dosing trial of example 4 enrolled 96 subjects with a hemoglobin A1c (HbA1c) level in excess of 7.5 percent and were being treated with a stable metformin dose as described above. The primary objectives of this trial were to evaluate the safety and tolerance of 17α-ethynylandrost-5-ene-3β,7β,17β-triol, 10 mg per day (5 mg twice daily), compared to placebo from baseline to week 12 and to evaluate the change in HbA1c from baseline to week 12 in the 17α-ethynylandrost-5-ene-3β,7β,17β-triol treated group when compared to the placebo group.
A retrospective analysis of data was performed on the subpopulation of patients that represented an obese, insulin-resistant, diabetic population. This analysis included patients who met the following criteria at baseline: BMI greater than or equal to 28; fasting plasma insulin levels greater than or equal to 4 μU/mL; fasting plasma C-peptide levels greater than or equal to 2 ng/mL; and serum monocyte chemoattractant protein-1 (MCP1) levels greater than or equal to 400 pg/mL. This phenotype represented 35% of all 89 patients with values reported for these parameters at baseline. Twenty-two individuals with this phenotype completed the 84 days of dosing. […] These changes in secondary indicators of activity were consistent with the observed decreases in HbA1c and glucose in this diabetic subpopulation.

[1] = retrospective subpopulation, 84 days, compared to placebo, non-significant

C#C[C@]1(O)CC[C@H]2[C@@H]3[C@@H](O)C=C4C[C@@H](O)CC[C@]4(C)[C@H]3CC[C@@]21C [17α-ethynylandrost-5-ene-3β,7β,17β-triol]
Fasting C-peptide Change from baseline (All patients, day 29): -0.2 ng/mL | Fasting Glucose Change from baseline (All patients, day 29): -7.5 mg/dL | HbA1c Change from baseline (All patients, day 29): 0 % Hb | LDL Cholesterol change from baseline (All patients, day 29): 0.5 mg/dL | Total Cholesterol change from baseline (All patients, day 29): -0.5 mg/dL | Weight change from baseline (All patients, day 29): -0.4136 kg | Fasting C-peptide Change from baseline (All patients, day 57): -0.2 ng/mL | Fasting Glucose Change from baseline (All patients, day 57): 0 mg/dL | HbA1c Change from baseline (All patients, day 57): 0.1 % Hb | LDL Cholesterol change from baseline (All patients, day 57): -2 mg/dL | Total Cholesterol change from baseline (All patients, day 57): -5.5 mg/dL | Weight change from baseline (All patients, day 57): -0.4546 kg | Fasting C-peptide Change from baseline (All patients, day 84): -0.05 ng/mL | Fasting Glucose Change from baseline (All patients, day 84): -4.25 mg/dL | HbA1c Change from baseline (All patients, day 84): 0.15 % Hb | LDL Cholesterol change from baseline (All patients, day 84): 4.5 mg/dL | Total Cholesterol change from baseline (All patients, day 84): 3 mg/dL | Weight change from baseline (All patients, day 84): -0.03864 kg | HOMA2% insulin sensitivity change from baseline (All patients, day 29): 4.2 % S | HOMA2% β cell function change from baseline (All patients, day 29): 0.8 % b | HOMA2 Insulin resistance change from baseline (All patients, day 29): −0.1453 IR | HOMA2% insulin sensitivity change from baseline (All patients, day 57): 1.75 % S | HOMA2% β cell function change from baseline (All patients, day 57): −2.15 % b | HOMA2 Insulin resistance change from baseline (All patients, day 57): −0.0518 IR | HOMA2% insulin sensitivity change from baseline (All patients, day 84): −1.45 % S | HOMA2% β cell function change from baseline (All patients, day 84): 5.6 % b | HOMA2 Insulin resistance change from baseline (All patients, day 84): 0.02309 IR | HbA1c Change from baseline (Responder patients (BMI>27.99, insulin resistant, MCP1>399.99 pg/mL), day 29): −0.15 % Hb | Fasting C-peptide Change from baseline (Responder patients, day 29): -0.2 ng/mL | Fasting Glucose Change from baseline (Responder patients, day 29): -17.5 mg/dL | LDL Cholesterol change from baseline (Responder patients, day 29): -8.5 mg/dL | Total Cholesterol change from baseline (Responder patients, day 29): -0.5 mg/dL | Weight change from baseline (Responder patients, day 29): -0.3727 kg | Fasting C-peptide Change from baseline (Responder patients, day 57): 0 ng/mL | Fasting Glucose Change from baseline (Responder patients, day 57): -7 mg/dL | HbA1c Change from baseline (Responder patients, day 57): −0.1 % Hb | LDL Cholesterol change from baseline (Responder patients, day 57): -11.5 mg/dL | Total Cholesterol change from baseline (Responder patients, day 57): -18.5 mg/dL | Weight change from baseline (Responder patients, day 57): -0.925 kg | Fasting C-peptide Change from baseline (Responder patients, day 84): 0.25 ng/mL | Fasting Glucose Change from baseline (Responder patients, day 84): -13 mg/dL | HbA1c Change from baseline (Responder patients, day 84): −0.425 % Hb | LDL Cholesterol change from baseline (Responder patients, day 84): -7.5 mg/dL | Total Cholesterol change from baseline (Responder patients, day 84): -14.5 mg/dL | Weight change from baseline (Responder patients, day 84): -1.33 kg | HOMA2% insulin sensitivity change from baseline (Responder patients, day 29): 3.9 % S | HOMA2% β cell function change from baseline (Responder patients, day 29): 2.1 % b | HOMA2 Insulin resistance change from baseline (Responder patients, day 29): −0.3061 IR | HOMA2% insulin sensitivity change from baseline (Responder patients, day 57): 1 % S | HOMA2% β cell function change from baseline (Responder patients, day 57): 5.3 % b | HOMA2 Insulin resistance change from baseline (Responder patients, day 57): −0.04016 IR | HOMA2% insulin sensitivity change from baseline (Responder patients, day 84): −4.4 % S | HOMA2% β cell function change from baseline (Responder patients, day 84): 16.3 % b | HOMA2 Insulin resistance change from baseline (Responder patients, day 84): 0.2265 IR | HbA1c, treatment vs placebo (entire 72 patient population that completed dosing on day 84): no statistical difference | decrease in HbA1c (retrospective subpopulation (BMI>=28, insulin>=4 μU/mL, C-peptide>=2 ng/mL, MCP1>=400 pg/mL), 84 days, compared to placebo, p=0.06): −0.53% | decrease in HOMA2 insulin resistance [1]: −0.65 IR | decrease in fasting plasma C-peptide [1]: -0.43 ng/mL | decrease in fasting plasma insulin [1]: −0.48 μU/mL | decrease in fructosamine [1]: -25.75 µmol/L | increase in HOMA2 beta cell function [1]: 17.95 % B | increase in HOMA2 insulin sensitivity [1]: 11.3 % S | decrease in fasting plasma glucose (retrospective subpopulation, 84 days, compared to placebo, p=0.09): -28.75 mg/dL | sensitivity analysis using last observation carried forward (subpopulation individuals who completed at least 29 days of dosing): showed improvement
